The record followed here is patent publication US11229618B2 (Amarin Pharmaceuticals Ireland Limited, priority 2012, dated 2022).

“Also recorded” adds a separate entry of the source.

A short description of series [1]: Phase 1 multidose pharmacokinetic study: total EPA in plasma (LC-MS/MS). The format is in vivo, human. The settings on record: for Total EPA in plasma, CL/F: day 28; for mean plasma CL/F of ethyl eicosapentaenoate: human. The procedure: (§1) A study to characterize the pharmacokinetics of ethyl eicosapentaenoate in plasma and red blood cells after multiple-dose administration of IPE at 2 g per day and 4 g per day was performed in healthy adult male and female humans.
(§2) The study was a phase 1, open-label, randomized, multidose study in healthy, nonsmoking men and women aged>18 and ≤55 years with a body mass index (BMI)>18 and ≤30 kg/m′. Exclusion criteria included use within 6 weeks prior to randomization through study end of any lipid-altering medications or supplements, including statins, niacin at levels of greater than 200 mg/day, fibrates, ezetimibe, bile acid sequestrants, omega-3 fatty acid medications, and supplements or foods enriched with omega-3 fatty acids (no more than 2 servings of fish per week were permitted).
(§3) Following a 14-day screening period, subjects entered a 28-day treatment period and were randomized to one of four IPE dose regimen treatment groups as shown in FIG. 1. Group 1 received IPE 2 g daily (1000-mg capsules; twice-daily [BID] regimen); Group 2 received IPE 4 g daily (1000-mg capsules; BID regimen); Group 3 received IPE 2 g daily (1000-mg capsules; once-daily [QD] regimen); and Group 4 received IPE 2 g daily (500-mg capsules; BID regimen). Treatment was administered orally, with or following a meal in the morning and evening for BID regimens, or in the morning only for the QD regimen. Subjects then entered an 18-day post-treatment pharmacokinetic sampling period.
(§4) Fasting EPA concentrations were measured with a validated liquid chromatography with tandem mass spectrometry (LC-MS/MS) method in plasma and RBCs prior to the morning dose (days 1, 14, 26, 28) and at serial time points (1, 3, 5, 6, 8, 10, 12, 24, 48, 72, 120, 192, 312, and 432 hours) after the morning dose on day 28. After the last dose on day 28, EPA concentrations were followed for 18 days to estimate the expected long half-life of EPA. Total plasma EPA included all EPA forms (unesterified EPA and that incorporated in phospholipids, triacylglycerols, and cholesteryl esters). In RBCs, EPA was measured in the cell membrane, where EPA is mainly incorporated in phospholipids.
(§5) For total EPA in plasma and RBCs, lipids were isolated by acid/methanol/chloroform extraction followed by centrifugation and purified by isohexane and solid-phase extraction after confirmed complete lipid hydrolysis and transmethylation (acid/methanol, 50° C. overnight). For unesterified EPA in plasma, 25 μL of an inhibitor solution (0.5 g sodium fluoride, 1.0 g L-ascorbic acid, and 0.25 g 5-methylisoxazole-3-carboxylic acid per 10 mL water) was included per 1 mL plasma sample to prevent degradation and lipids were isolated by centrifugation after methanol/chloroform extraction (without hydrolysis or methylation) and further purified by protein precipitation and solid-phase extraction. Quantitation utilized linolenic acid as an internal standard and EPA as the standard for the calibration curve; for total plasma EPA, RBC EPA, and unesterified EPA, the lower limits of quantitation were 10 μg/mL, 5 μg/mL, and 50 ng/mL, respectively. EPA concentrations were measured at Charles River Laboratories Ltd (Elphinstone Research Center, Tranent, Edinburgh, Scotland, UK).
(§6) Unless otherwise specified, all reported parameters are based on baseline-subtracted concentrations (baseline is due to EPA derived from dietary sources).

Series [2] is described as follows: Phase 1 multidose pharmacokinetic study: unesterified EPA in plasma (LC-MS/MS). The format is in vivo, human. The settings on record: for Unesterified EPA in plasma, CL/F: day 28. As for the experimental part: as §1, §2, §3, §4, §5, §6
Where [3] appears, read: Group 1: IPE 2 g/d 1 × 1000 mg BID.
[4] abbreviates: Group 2: IPE 4 g/d 2 × 1000 mg BID.
Setting [5] is: Group 3: IPE 2 g/d 2 × 1000 mg QD.
The mark [6] stands for this setting: Group 4: IPE 2 g/d 2 × 500 mg BID.
Where [7] appears, read: about 2 g orally twice per day, human.

Regarding `CC/C=C\C/C=C\C/C=C\C/C=C\C/C=C\CCCC(=O)OCC` [IPE, all-cis eicosa-5,8,11,14,17-pentaenoic acid ethyl ester], in series [1] (2 g/day vs 4 g/day (Group 1 vs. Group 2), total plasma, total RBCs, unesterified EPA), the “dose linearity of EPA exposure (dose-normalized AUC and maximum concentration)” value is reported as “Dose linearity was observed; also recorded: dose-proportional”. Also, the “comparison of exposure between QD and BID regimens” value in series [1] (2 g/day, Group 1 vs. Group 3) was “similarity between QD and BID regimens”. The “comparison of exposure between 1×1000-mg and 2×500-mg formulations” value in series [1] (2 g/day, Group 1 vs. Group 4) is given as “similarity; also recorded: comparable exposures at comparable doses”. In addition, the “Total EPA in plasma, CL/F” value in series [1] (setting [3]) came to 776.4 mL/h; in series [1] (setting [4]), 683.7 mL/h; in series [1] (setting [5]) it was 867.7 mL/h; in series [1] (setting [6]), 684.5 mL/h. The “mean plasma CL/F of ethyl eicosapentaenoate” value in series [1] (about 1 g orally twice per day) is listed as “about 776.4+/−256.9 mL/h”; in series [1] (about 2 g orally twice per day) it was “about 683.7+/−280.6 mL/h”. In addition, in series [1] (graphical examination), the “effect of age on AUC0-24hr and maximum concentration of total and unesterified plasma EPA” value is recorded as “no effect of age was observed”. Also, the “effect of gender on EPA exposure parameters” value in series [1] (in vivo) is “no consistent gender effect was observed”. Besides, the “Unesterified EPA in plasma, CL/F” value in series [2] (setting [3]) is given as 364,513 mL/hr; in series [2] (setting [4]) it was 234,329 mL/hr; in series [2] (setting [5]), 241,855 mL/hr; in series [2] (setting [6]) it was 326,622 mL/hr. For the same compound, the “mean plasma CL/F of unesterified eicosapentaenoic acid” value in series [2] (about 1 g orally twice per day, human) is “about 364,513+/−214,003 mL/h”; in series [2] (setting [7]) it was “about 234,329+/−81,639 mL/h”. In addition, the “mean plasma AUC0-24h of unesterified eicosapentaenoic acid” value in series [2] (setting [7]) was “about 18.4+/−4.6 μg·h/mL”. Besides, the “mean plasma Calm of unesterified eicosapentaenoic acid” value in series [2] (setting [7]) is “about 1.06+/−0.56 μg/mL”. Further, in series [2] (setting [7]), the “mean plasma Cmax of unesterified eicosapentaenoic acid” value was “about 1.4+/−0.41 μg/mL”. Further, the “mean plasma T1/2 of unesterified eicosapentaenoic acid” value in series [2] (setting [7]) is listed as “about 97.2+/−36.5 hours”. Also, in series [2] (setting [7]), the “median plasma Tmax of unesterified eicosapentaenoic acid” value is on record as “about 5 hours”.
